# Laboratory results: patent EP0022969A1, “Antimycotic compositions containing azolylalkenols and their preparation” (BAYER AG, priority 1979, dated 1981)
# System: Trichophyton mentagrophytes
# Assay: Antimicrobial in vivo activity (local) in experimental guinea pig trichophytosis
# Parameters: species or system Meerschweinchen der Rasse Pirbright-white
# Details: guinea pigs infected with Trichophyton mentagrophytes; 1% solution in DMSO:glycerol 1:4, local, once daily from day 3 p.i.; meaning only slight redness and isolated scales, or no signs of infection
# Excerpt: Weiße Meerschweinchen der Rasse Pirbright-white wurden auf dem geschorenen, nicht skarifizierten Rücken mit einer Mikro- und Makrokonidien-Suspension von Trichophyton mentagrophytes infiziert.
# Die infizierten Tiere wurden, beginnend mit dem 3.Tag p.i., 1 x täglich mit 1%-iger Lösung der erfindungsgemäßen Präparate (in Dimethylsulfoxid:Glycerin=1:4) lokal behandelt.
# Bei unbehandelten Tieren entwickelt sich innerhalb von 12 Tagen p.i. das typische Bild einer Dermatophytose mit Rötung, Schuppung und Haarausfall bis zum totalen Integument-Defekt an der Infektionsstelle.
row,Structure (SMILES),Wirkung (Infektionszeichen)
1,CC(C)(C)C(O)C(=Cn1ccnc1)Oc1ccc(F)cc1Cl (stereo not drawn) [Beispiel 9],gute bis sehr gute Wirkung
2,CC(C)(C)C(O)C(=Cn1ccnc1)Oc1ccc(F)cc1 (stereo not drawn) [Beispiel 1],gute bis sehr gute Wirkung
3,CC(C)(C)C(O)C(=Cn1ccnc1)Oc1ccccc1Cl (stereo not drawn) [Beispiel 5],gute bis sehr gute Wirkung
